The values below are quoted from earlier work in US20200276216A1, “INHIBITION OF GLYCOLYSIS WITH 2-DEOXY-D-GLUCOSE AND D-LACTIC ACID DIMER” (priority 2020, published 2020).

The conditions of series [1]: in vivo.
The conditions of series [2]: in vivo, po.
Another series concerns cancer cells. The settings on record: dose dependent, exclusive of its ability to lower pH.

As usually defined, the half-life is the time needed for the level to fall by half in the phase considered. As for `O=CC[C@@H](O)[C@H](O)[C@H](O)CO` [2DG, 2-Dexoxy-D-Glucose], the “estimated maximum approximate dose before side effects become clinically significant” value in series [1] is reported as ~60 mg/kg/day. Also, the half-life in series [2] is 4.5 to 8.2 h.

`C[C@@H](O)C(=O)O[C@H](C)C(=O)O` [DLAD, D-Lactic Acid Dimer]: the “selectivity of action in vitro” value with cancer cells is “selective for cancer cells”.
